Measured values taken from BigSolDB 2.1.

[NH3+]O.[NH3+]O.[O-]n1nnnc1-c1nnnn1[O-]
solubility (mole fraction)
Details | in DMF | in DMSO | in ethanol | in ethyl acetate | in formic acid | in toluene | in water
293.15 K | 6.38e-05 | 0.00122 | 3.87e-06 | 1.93e-06 | 0.000213 | 1.85e-05 | 2.42e-05
298.15 K | 7.18e-05 | 0.00131 | 4.82e-06 | 2.16e-06 | 0.000231 | 2.2e-05 | 2.83e-05
303.15 K | 9.56e-05 | 0.00149 | 5.92e-06 | 2.37e-06 | 0.00025 | 2.44e-05 | 3.29e-05
308.15 K | 0.000142 | 0.00159 | 7.19e-06 | 2.72e-06 | 0.00028 | 2.6e-05 | 3.59e-05
313.15 K | 0.000183 | 0.00179 | 8.16e-06 | 3.16e-06 | 0.000302 | 2.89e-05 | 4.17e-05
318.15 K | 0.000225 | 0.00191 | 9.64e-06 | 3.56e-06 | 0.000347 | 3.24e-05 | 4.84e-05
323.15 K | 0.000269 | 0.00211 | 1.21e-05 | 3.92e-06 | 0.000392 | 3.69e-05 | 5.5e-05
